Laboratory results reported in patent US12678518B2, “Theranostic probe and its use for targeting and/or labeling the EGFR kinase and/or the cells expressing EGFR or its family members” (Tianjin University, priority 2019, dated 2026).

Key:
EGFR dimers (wild type) = target: T1, EGFR dimers (wild type) (Homo sapiens, UniProt P00533); assay: Protein complementary assay (split YFP), PDCy3 binding to EGFR dimers, wild type; format: cell-based; conditions: wild type receptor pair, 1 μM PDCy3
T1 construct: one encoding human EGFR(1-998) fused with a split YFP-N(1-172) fragment; the other encoding hEGFR(1-998) linked to a split YFP-C(155-238) fragment; expressed in transfected cells; host or cells: HEK 293T
T1 sequence (P00533 25-1022): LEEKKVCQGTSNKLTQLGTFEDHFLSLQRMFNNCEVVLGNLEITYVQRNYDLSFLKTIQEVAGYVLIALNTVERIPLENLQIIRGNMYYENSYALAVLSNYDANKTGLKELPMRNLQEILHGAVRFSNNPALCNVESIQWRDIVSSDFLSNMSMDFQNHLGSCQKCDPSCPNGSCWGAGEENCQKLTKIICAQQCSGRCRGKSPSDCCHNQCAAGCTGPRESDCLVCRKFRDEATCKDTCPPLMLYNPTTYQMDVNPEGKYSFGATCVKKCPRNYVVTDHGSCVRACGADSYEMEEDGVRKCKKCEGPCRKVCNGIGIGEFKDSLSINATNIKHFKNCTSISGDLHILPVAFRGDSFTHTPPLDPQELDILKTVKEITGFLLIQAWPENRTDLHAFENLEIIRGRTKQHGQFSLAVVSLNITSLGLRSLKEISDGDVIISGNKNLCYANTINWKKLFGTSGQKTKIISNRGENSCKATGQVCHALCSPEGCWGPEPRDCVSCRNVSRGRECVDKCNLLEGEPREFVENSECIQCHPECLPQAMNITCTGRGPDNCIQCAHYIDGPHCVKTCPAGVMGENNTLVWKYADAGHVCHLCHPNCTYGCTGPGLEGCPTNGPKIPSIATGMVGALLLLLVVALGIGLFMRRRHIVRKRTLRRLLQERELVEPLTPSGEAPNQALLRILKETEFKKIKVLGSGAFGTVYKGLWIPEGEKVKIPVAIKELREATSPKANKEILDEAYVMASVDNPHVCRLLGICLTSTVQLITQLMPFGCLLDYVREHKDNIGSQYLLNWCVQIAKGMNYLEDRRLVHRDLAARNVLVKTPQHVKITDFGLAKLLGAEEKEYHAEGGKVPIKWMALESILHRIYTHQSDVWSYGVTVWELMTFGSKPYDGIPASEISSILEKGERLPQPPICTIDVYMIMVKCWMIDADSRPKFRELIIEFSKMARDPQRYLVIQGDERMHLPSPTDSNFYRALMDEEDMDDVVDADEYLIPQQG
T1 sequence (P00533 25-1022): as above
From the text: Protein complementary assay. For protein complementary assay, we designed two complementary constructs: one encoding human EGFR(1-998) fused with a split YFP-N(1-172) fragment, and the other encoding hEGFR(1-998) linked to a split YFP-C(155-238) fragment. Kinase mutations were introduced on both constructs to make a complementary pair. All the constructs were verified by sequencing. The paired constructs encoding the same receptor were co-transfected into HEK 293T cells. Transfected cells were starved in EX-Cell 293 Serum-Free Medium for 44 hours before treatment with 1 μM PDCy3 for additional 4 hours. The dimerization of the EGF receptors and the binding of dimerized receptors to PDCy3 were analyzed by flowcytometry.
To further investigate how EGFR kinase dimerization affects PDCy3 binding, we did a protein complementary assay. In the assay, split YFP fragments were individually fused to the C-terminus of the full length EGFR, and EGF kinase dimerization was reported by the fluorescence of assembled YPF from co-transfected receptors (FIG. 4A)^23. As shown in the FIG. 4B, the cells with co-expressed EGFR dimers could be divided into two populations. In one population, the quantity of bound PDCy3 increased linearly as a function of the expression levels of EGFR dimers (FIG. 4C). But in the other population, the quantity of bound PDCy3 was independent of the expressed EGFR dimers. […]

EGFR = EGFR (Homo sapiens, UniProt P00533); assay: Inhibition of the EGF receptor kinase activity (EGFR phosphorylation, western blotting); conditions: EGFR-transfected HEK293T cells, 10 minutes
Sequence of EGFR (P00533 25-1012): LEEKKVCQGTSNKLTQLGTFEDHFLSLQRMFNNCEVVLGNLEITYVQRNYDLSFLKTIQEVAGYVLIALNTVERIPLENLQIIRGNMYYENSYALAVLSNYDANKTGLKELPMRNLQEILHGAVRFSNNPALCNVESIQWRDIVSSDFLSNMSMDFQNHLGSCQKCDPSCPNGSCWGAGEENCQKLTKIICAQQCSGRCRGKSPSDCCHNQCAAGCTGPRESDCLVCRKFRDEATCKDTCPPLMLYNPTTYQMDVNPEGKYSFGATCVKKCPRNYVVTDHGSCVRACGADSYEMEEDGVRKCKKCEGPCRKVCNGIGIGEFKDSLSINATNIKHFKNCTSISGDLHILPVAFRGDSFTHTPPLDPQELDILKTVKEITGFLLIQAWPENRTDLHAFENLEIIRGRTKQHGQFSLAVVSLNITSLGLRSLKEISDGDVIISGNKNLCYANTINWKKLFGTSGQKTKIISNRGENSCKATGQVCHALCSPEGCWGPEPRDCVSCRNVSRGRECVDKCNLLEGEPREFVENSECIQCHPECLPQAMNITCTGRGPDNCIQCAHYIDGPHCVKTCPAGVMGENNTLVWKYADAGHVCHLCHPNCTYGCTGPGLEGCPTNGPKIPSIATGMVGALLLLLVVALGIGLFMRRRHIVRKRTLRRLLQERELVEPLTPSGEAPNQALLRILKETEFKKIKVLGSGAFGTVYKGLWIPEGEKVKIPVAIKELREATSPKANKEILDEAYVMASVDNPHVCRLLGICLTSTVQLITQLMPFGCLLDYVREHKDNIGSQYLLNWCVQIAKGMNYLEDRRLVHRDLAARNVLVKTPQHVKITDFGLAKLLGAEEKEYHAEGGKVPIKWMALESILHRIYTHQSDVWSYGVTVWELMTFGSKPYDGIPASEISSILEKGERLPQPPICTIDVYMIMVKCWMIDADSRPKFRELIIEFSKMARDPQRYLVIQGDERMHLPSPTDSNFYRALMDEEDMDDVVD
Experimental: Inhibition of the EGF receptor kinase activity. […] Treated cells were lysed by mixing with 40 μl/well lysis buffer (50 mM Tris, pH 7.5, 150 mM NaCl, 1% TritonX-100, 1% sodium deoxycholate, 0.1% SDS, 10 mM EDTA, 1 mM Na3VO4, 2 mM PMSF). […] The supernatants were mixed with 6×SDS sample buffer, and were subjected to SDS-PAGE and Western blotting analysis. The expression and phosphorylation levels of EGFR were detected by 4G10 and anti-Protein C antibodies, respectively, in western blotting.
In the assay, EGFR-transfected HEK293T cells were treated with the PDCy3 probe at different concentrations for 10 minutes in the presence and absence of 10 nM EGF. The expression and phosphorylation levels of the EGF receptor were detected and analyzed by western blotting.
Inhibition of the EGF receptor kinase activity. […] Treated cells were lysed by mixing with 40 μL/well lysis buffer (50 mM Tris, pH 7.5, 150 mM NaCl, 1% Triton X-100, 1% sodium deoxycholate, 0.1% SDS, 10 mM EDTA, 1 mM Na3VO4, 2 mM PMSF). […] The expression and phosphorylation levels of EGFR were detected by 4G10 and anti-Protein C antibodies, respectively, in western blotting.
In the assay, EGFR-transfected HEK293T cells were treated with PDCy3 at different concentrations for 10 minutes in the presence or absence of 10 nM EGF. The expression and phosphorylation levels of EGFR were detected and analyzed by western blotting.

fraction of the population with the higher sensitivity to PDCy3 (population A) (EGFR dimers (wild type)): 38.4% | concentration at which EGFR kinase activity was completely inhibited (EGFR; presence and absence of 10 nM EGF, western blotting): 20 µM
SMILES: CN1/C(=C/C=C/C2=[N+](CCCCCC(=O)NCCC/C=C/C(=O)Nc3ccc4ncnc(Nc5cccc(Br)c5)c4c3)c3ccc(S(=O)(=O)O)cc3C2(C)C)C(C)(C)c2cc(S(=O)(=O)[O-])ccc21 [PDCy3, 1-(6-((E)-6-(4-(3-bromophenylamino)quinazolin-6-ylamino)-6-oxohex-4-enylamino)-6-oxohexyl)-3,3-dimethyl-2-((1E,3E)-3-(1,3,3-trimethyl-5-sulfonatoindolin-2-ylidene)prop-1-enyl)-3H-indolium-5-sulfonate]
inhibition of EGFR kinase activity (in words) (EGFR; different concentrations): inhibit the kinase activity of EGFR in a dose dependent manner
